The text below walks through data of ChEMBL document CHEMBL5154656, “High-Throughput Screening Platform in Postnatal Heart Cells and Chemical Probe Toolbox to Assess Cardiomyocyte Proliferation” (J Med Chem, 2022).

The target of series [1] is Mitogen-activated protein kinase 14 (Homo sapiens) (UniProt Q16539). The series is described as follows: Inhibition of P38alphaMAPK (unknown origin) relative to control. Conditions: concentration not given here.
For series [2], the target named is Mitogen-activated protein kinase 11 (Homo sapiens) (UniProt Q15759). Briefly: Inhibition of P38betaMAPK (unknown origin) relative to control. The following applies: concentration not given here.
Series [3] has as its system Cardiac muscle cell. The series is described as follows: Pro-proliferative activity in Wistar rat cardiac cells from P1 early postnatal developmental time points assessed as effect on cell number by measuring alphaAct/Ki67 cardiomyocyte nuclei at 0.33 to 10 uM by DAPI analysis. Conditions: dose 0.33-10 µM. In kind it is functional, cell-based.
For series [4], the system named is Cardiac muscle cell. Briefly: Pro-proliferative activity in Wistar rat cardiac cells from P6 late postnatal developmental time points assessed as effect on cell number by measuring alphaAct/Ki67 cardiomyocyte nuclei at 0.33 to 10 uM by DAPI analysis. In kind it is functional, cell-based. The following applies: dose 0.33-10 µM.
The nature of series [5]: Cytotoxicity against mouse Cardiomyocytes assessed as toxicity at 0.33 to 10 uM. Conditions: cardiac muscle cell, dose 0.33-10 µM. In kind it is cell-based.
Series [6] concerns Cardiac muscle cell. Briefly: Cytotoxicity against rat Cardiomyocytes assessed as toxicity at 0.33 to 10 uM. In kind it is cell-based. The following applies: dose 0.33-10 µM.
Series [7] relates to Cardiac Muscle Cell. The series is described as follows: Induction of cell proliferation in postnatal day 6 CD1 mouse heart assessed as increase in number of cardiomyocyte by measuring mCherry+ cardiomyocyte nuclei at 0.001 to 1 uM. The format is functional, cell-based. Conditions: dose 0.001-1 µM, DDE = dose-dependent effect.
Series [8] has as its system Cardiac Muscle Cell. The series is described as follows: Induction of cell proliferation in postnatal day 6 mouse cardiac cells assessed as increase in total CM nuclei number. The format is functional, cell-based.
The test system of series [9] is Cardiac Muscle Cell. Briefly: Induction of cell proliferation in postnatal day 1 transgenic mouse cardiac cells assessed as increase in percentage of eGFP-anillin-positive cardiomyocytes. The format is functional, cell-based.
Series [10] deals with Cardiac Muscle Cell. The series is described as follows: Induction of cell proliferation in postnatal day 6 transgenic mouse cardiac cells assessed as increase in percentage of eGFP-anillin-positive cardiomyocytes. The format is functional, cell-based.
In series [11] the test system is Cardiac Muscle Cell. Briefly: Induction of cell proliferation in postnatal day 1 transgenic mouse cardiac cells assessed as increase in total CM nuclei number. In kind it is functional, cell-based.
Series [12] relates to Cardiac Muscle Cell. The series is described as follows: Induction of cell proliferation in postnatal day 1 transgenic mouse cardiac cells assessed as increase in bi-nucleation. In kind it is functional, cell-based.
For series [13], the system named is Cardiac muscle cell. Briefly: Induction of cell proliferation in postnatal day 5 rat cardiac cells assessed as increase in total CM nuclei number. In kind it is functional, cell-based.
Series [14] concerns Cardiac muscle cell. Briefly: Induction of cell proliferation in postnatal day 5 rat cardiac cells assessed as increase in nuclear to cytoplasmic YAP ratio for 4 to 24 hrs by immunostaining analysis. The following applies: time 4-24 hrs. The format is functional, cell-based.
Series [15] in a line: Cytotoxicity against mouse Cardiomyocytes assessed as toxicity at > 1 uM. The format is cell-based. Conditions: cardiac muscle cell.
The test system of series [16] is Cardiac muscle cell. Briefly: Cytotoxicity against rat Cardiomyocytes assessed as toxicity at > 1 uM. The format is cell-based.
The test system of series [17] is Cardiac muscle cell. Briefly: Induction of cell proliferation in postnatal day 1 Wistar rat cardiac cells assessed as enhancement cardiomyocyte numbers by measuring alphaAct+. In kind it is functional, cell-based.
The subject of series [18] is Cardiac muscle cell. The series is described as follows: Induction of cell proliferation in postnatal day 1 Wistar rat cardiac cells assessed as increase in cardiomyocyte numbers by measuring alphaAct+ at 0.33 to 5 uM. In kind it is functional, cell-based. Conditions: dose 0.33-5 µM.
The subject of series [19] is Cardiac Muscle Cell. Briefly: Induction of cell proliferation in postnatal day 6 mouse cardiac cells assessed as stimulation in pro-prolierative responses. In kind it is functional, cell-based. Conditions: dose 0.33-10 µM, DDE = dose-dependent effect.
Series [20] has as its system Cardiac muscle cell. The series is described as follows: Induction of cell proliferation in postnatal day 6 rat cardiac cells assessed as stimulation in pro-prolierative responses. In kind it is functional, cell-based. The following applies: dose 0.1-10 µM, DDE = dose-dependent effect.
For series [21], the system named is Cardiac muscle cell. Briefly: Induction of cell proliferation in postnatal day 6 rat cardiac cells assessed as increase in CM numbers at 0.33 to 5 uM. The following applies: dose 0.33-5 µM. The format is functional, cell-based.
The subject of series [22] is Cardiac Muscle Cell. Briefly: Induction of cell proliferation in postnatal day 1 mouse cardiac cells assessed as increase in CM numbers at 0.33 to 5 uM. The format is functional, cell-based. Conditions: dose 0.33-5 µM.
Series [23] has as its system Cardiac Muscle Cell. Briefly: Induction of cell proliferation in postnatal day 6 mouse cardiac cells assessed as increase in CM numbers at 0.33 to 5 uM. In kind it is functional, cell-based. The following applies: dose 0.33-5 µM.
Series [24] relates to Cardiac muscle cell. Briefly: Induction of cell proliferation in postnatal day 6 Wistar rat cardiac cells assessed as enhancement cardiomyocyte numbers by measuring alphaAct+. In kind it is functional, cell-based.
Series [25] concerns Cardiac Muscle Cell. Briefly: Induction of cell proliferation in postnatal day 1 CD1 mouse cardiac cells assessed as enhancement in cardiomyocyte numbers by measuring alphaAct+. In kind it is functional, cell-based.
The test system of series [26] is Cardiac Muscle Cell. The series is described as follows: Induction of cell proliferation in postnatal day 6 CD1 mouse cardiac cells assessed as enhancement in cardiomyocyte numbers by measuring alphaAct+. In kind it is functional, cell-based.
For series [27], the system named is Cardiac muscle cell. The series is described as follows: Induction of cell proliferation in postnatal day 6 rat cardiac cells assessed as increasing in number of cardiomyocytes. Conditions: dose 0.1-10 µM, DDE = dose-dependent effect. The format is functional, cell-based.

Active and inactive are the calls of the source. No cut-off for these calls is given here.

Chain of Mitogen-activated protein kinase 14 (Homo sapiens) (Q16539 whole entry): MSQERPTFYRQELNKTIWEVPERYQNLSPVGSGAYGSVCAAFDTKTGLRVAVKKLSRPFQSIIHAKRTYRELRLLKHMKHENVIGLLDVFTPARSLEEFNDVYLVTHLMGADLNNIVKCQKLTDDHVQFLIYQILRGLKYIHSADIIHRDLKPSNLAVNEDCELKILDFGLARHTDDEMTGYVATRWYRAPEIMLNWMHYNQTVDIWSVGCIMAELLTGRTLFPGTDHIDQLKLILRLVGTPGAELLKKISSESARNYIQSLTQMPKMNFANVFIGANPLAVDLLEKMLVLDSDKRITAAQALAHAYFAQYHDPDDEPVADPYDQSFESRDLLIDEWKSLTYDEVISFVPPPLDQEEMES
Chain of Mitogen-activated protein kinase 11 (Homo sapiens) (Q15759 whole entry): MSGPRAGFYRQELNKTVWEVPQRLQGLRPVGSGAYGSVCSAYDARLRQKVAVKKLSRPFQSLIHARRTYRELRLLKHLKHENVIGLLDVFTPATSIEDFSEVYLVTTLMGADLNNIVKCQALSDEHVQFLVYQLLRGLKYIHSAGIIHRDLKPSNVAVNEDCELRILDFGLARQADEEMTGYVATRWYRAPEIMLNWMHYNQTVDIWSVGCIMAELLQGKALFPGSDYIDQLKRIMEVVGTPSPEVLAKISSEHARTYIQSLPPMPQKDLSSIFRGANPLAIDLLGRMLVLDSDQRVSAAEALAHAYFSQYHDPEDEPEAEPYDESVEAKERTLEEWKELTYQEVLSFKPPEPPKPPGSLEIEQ

On to `O=C1c2ccc(Nc3ccc(F)cc3F)cc2CCc2ccc(OC[C@H](O)CO)cc21`, for which the inhibition in [1] and in series [2] was 99.8% throughout. Moreover, the outcome in series [3] and in series [4] was Active.
With `Cc1c[nH]c(-c2cnc(NCCNc3ccc(C#N)cn3)nc2-c2ccc(Cl)cc2Cl)n1` [LADUVIGLUSIB], the Activity entry in series [5] and in series [6] was “Non-Toxic” each time.
In the case of `CN1CCN(Cc2ccc(NC(=O)Cc3ccc(Oc4cc(NC(=O)C5CC5)ncn4)cc3)cc2C(F)(F)F)CC1`, the results for the Activity entry in series [7], in series [5] and in [6] were “Dde”, “Non-Toxic” and “Non-Toxic”, respectively. The result in [8], in series [9], in series [10], in [11], in [12] and in series [13] was Active. In addition, the outcome in [14] was Active.
On to `CCn1c(=O)[nH]c2ccccc21`, for which the Activity result in series [15] and in series [16] was “Toxic” each time.
On to `O=C(NCC(O)CO)c1ccc2c(c1)C(=O)c1ccc(Nc3ccc(F)cc3F)cc1CC2` (stereo not drawn), for which the result in [3] and in [4] was Active.
On to `COc1nccc(-c2c(-c3ccc(F)cc3)ncn2[C@H]2CC[C@H](O)CC2)n1`, for which the outcome in [17], in series [18], in series [21], in series [22], in series [23] and in [24] was Active. For the same compound, the result in [25] and in [26] was Active. Also, the Activity entry in series [19] is “Dde”; in [20], “Dde”; in [5] it was “Non-Toxic”; in [6] it was “Non-Toxic”.
For the compound `Cc1cnc(-c2cnc(NCCNc3ccc(C#N)cn3)nc2-c2ccc(Cl)cc2Cl)[nH]1`, the Activity result in [27] was “Dde”. Also, the outcome in series [14] was Active.
As for `CN1CCN(Cc2ccc(NC(=O)Nc3ccc(Oc4cc(NC(=O)C5CC5)ncn4)cc3)cc2C(F)(F)F)CC1`, the Activity entry in [7] is “Dde”. The result in [8], in series [9], in [10], in series [11], in [12] and in [13] was Active.
For `O=C(OCCN1CCOCC1)c1ccc2c(c1)C(=O)c1ccc(Nc3ccc(F)cc3F)cc1CC2`, the result in series [3] and in [4] was Active.

One may read the inhibition as the share of the control response that was lost under treatment. A lower inhibition goes with a weak effect.
